Results reported in patent US20240335364A1, “COMPOSITIONS OF DICAFFEOYLQUINIC ACIDS WITH TOCOPHEROL” (SYMRISE AG, priority 2021, published 2024).

What was measured:
Format in all cases: cell-based, human
Details in all cases: nHEK, 24 h
DEFB1 = assay: Modulation of DEFB1 gene expression of keratinocytes (real-time qPCR, RQ); parameters: key: RQ = expression relative to DMSO vehicle control (qPCR)
Method: (§1) Neonatal human epidermal keratinocytes (nHEK) were cultivated in an EpiLife® medium (Gibco) including an HKGS kit (Gibco) with 5% CO2 at 37° C. in accordance with the supplier's instructions. The cells were treated for 24 hours, with 0.0005% of the different dicaffeoylquinic acids from above dissolved in DMSO and DMSO alone as the vehicle control. Genomic target expression levels in treated cells were measured using a quantitative Real-Time PCR comparison to vehicle control treatment.
(§2) RNA was isolated using Qiagen's RNeasy® Mini Kit. The total RNA concentrations were measured using Eppendorf's μCuvetteG 1.0 and BioPhotometer, by measuring the absorption at 260 nm. Purity control values such as E260/280 and E260/230 were calculated simultaneously. Reverse transcription was performed using the high-capacity RNA-to-cDNA kit of Applied Biosystems, in accordance with the supplier's instructions. Samples were treated in Biometra's PCR Thermocycler. For fast real-time qPCR, the cDNA was diluted with RNase-free water, and the TaqMan™ Fast Universal PCR Master Mix of Applied Biosystems was used. Quantitative real time PCR was performed using the StepOnePlus fast real-time PCR instrument by Applied Biosystems. Analysis was conducted using the StepOne software and […] (normalised to endogenous control […] expression). For upregulations, RQ values ≥2.5 are considered to be relevant.
(§3) Neonatal human epidermal keratinocytes (nHEK) were cultivated as described in Example 1 and treated for 24 hours with 0.0007% of the different monocaffeoylquinic acids. Afterwards fast real-time qPCR was performed as described in above using a customised gene array.
(§4) Neonatal human epidermal keratinocytes (nHEK) were cultivated as described in Example 1 and treated for 24 hours with 4,5-dicaffeoylquinic acid (CAS number 14534-61-3, Phytolab GmbH & Co. KG) and (±)-α-tocopherol (CAS number 10191-41-0, synonym: Synonym: DL-α-Tocopherol, Vitamin E, Sigma-Aldrich, synthetic) alone and in combination. Afterwards fast real-time qPCR was performed as described in above using a customised gene array.
(§5) [formula] • With • A=RQ value by 4,5-dicaffeoylquinic acid at concentration x • B=RQ value by tocopherol at concentration y • C=RQ value by the combination of 4,5-dicaffeoylquinic acid at concentration x/2 and tocopherol at concentration y/2 • D=Factor for 4,5-dicaffeoylquinic acid=>0.5 (due to half concentration tested in the combination) • E=Factor for tocopherol=>0.5 (due to half concentration tested in the combination) • A SI=1 is obtained for additive activity of the two combined components, whereas a SI <1 proves antagonistic activity (observed efficacy is lower than additive) and SI >1 proves synergistic activity (observed efficacy is higher than additive).
(§6) Neonatal human epidermal keratinocytes (nHEK) were cultivated as described above and treated for 24 hours with yarrow extract of example 3 (Achillea millefolium, freeze-dried fresh press juice of flowering aerials, cultivated in Germany) and (±)-α-tocopherol (CAS number 10191-41-0, synonym: Synonym: DL-α-Tocopherol, Vitamin E, Sigma-Aldrich, synthetic) alone and in two combinations. Afterwards fast real-time qPCR was performed as described in above using a customised gene array.
as §6, with “(+)-α-tocopherol” for “(±)-α-tocopherol”, “59-02-9,” for “10191-41-0,”, “D-α-tocopherol,” for “DL-α-Tocopherol,”, “Sigma-Aldrich)” for “Sigma-Aldrich, synthetic)”, “combination.” for “two combinations.”

DSC1 = assay: Modulation of DSC1 gene expression of keratinocytes (real-time qPCR, RQ); parameters: key: RQ: expression relative to DMSO vehicle control
Method: as §1, §2, §3
(§7) Neonatal human epidermal keratinocytes (nHEK) were cultivated as described in Example 1 and treated for 24 hours with 0.005% of the extract samples. Afterwards fast real-time qPCR was performed as described in above using a customized gene array.
as §4, §5
(§8) Neonatal human epidermal keratinocytes (nHEK) were cultivated as described in Example 1 and treated for 24 hours with 3,4-dicaffeoylquinic acid (CAS number 57378-72-0, Phytolab GmbH & Co. KG) and (+)-α-tocopherol (CAS number 59-02-9, synonym: Synonym: D-α-tocopherol, Vitamin E, Sigma-Aldrich) alone and in combination. Afterwards fast real-time qPCR was performed as described in above using a customised gene array. For upregulations, RQ values ≥2.5 are considered to be relevant.
as §6, with “array. […]” for “array.”

OCLN = assay: Modulation of OCLN gene expression of keratinocytes (real-time qPCR, RQ); parameters: key: RQ: expression relative to DMSO vehicle control (qPCR)
Method: as §1, §2, §3, §7, §4, §5, §6

CRYAB = assay: Modulation of CRYAB gene expression of keratinocytes (real-time qPCR, RQ); parameters: key: relative quantity (RQ) vs DMSO vehicle-treated control
Method: as §1, §2, §3, §7, §4, §5
(§9) Neonatal human epidermal keratinocytes (nHEK) were cultivated as described above and treated for 24 hours with 3,5-dicaffeoylquinic acid (CAS number 2450-53-5, Phytolab GmbH & Co. KG) and D-α-tocopherol (CAS number 59-02-9, synonym: (+)-α-tocopherol, Vitamin E, trade name: Copherol® F 1300 C, BTC Europe GmbH) alone and in combination. Afterwards fast real-time qPCR was performed as described in above using a customised gene array.
as §6, with “array. […]” for “array.”

HSPB2 = assay: Modulation of HSPB2 gene expression of keratinocytes (real-time qPCR, RQ); parameters: key: relative quantity vs DMSO vehicle control (qPCR)
Method: as §1, §2, §3, §4, §5, §6

HSPB8 = assay: Modulation of HSPB8 gene expression of keratinocytes (real-time qPCR, RQ); parameters: key: RQ: expression relative to DMSO vehicle control (qPCR)
Method: as §1, §2, §3, §7, §4, §5, §6

DSG1 = assay: Modulation of DSG1 gene expression of keratinocytes (real-time qPCR, RQ); parameters: key: relative quantity vs DMSO vehicle control (qPCR)
Method: as §1, §2, §3, §7, §4, §5, §8
as §9, with “array. […]” for “array.”

CLDN1 = assay: Modulation of CLDN1 gene expression of keratinocytes (real-time qPCR, RQ)
Method: as §1, §2, §3, §7, §4, §5, §8, §6

SMILES | RQ value DEFB1 (DEFB1; 0.0005%, Example 1) | RQ value DSC1 (DSC1; 0.0005%, Example 1) | RQ value OCLN (OCLN; 0.0005%, Example 1) | RQ value CRYAB (CRYAB; 0.0005%, Example 1) | RQ value HSPB2 (HSPB2; 0.0005%, Example 1) | RQ value HSPB8 (HSPB8; 0.0005%, Example 1) | RQ value DSG1 (DSG1; 0.0005%, Example 1) | RQ value CLDN1 (CLDN1; 0.0005%, Example 1) | further results
O=C(/C=C/c1ccc(O)c(O)c1)O[C@@H]1C[C@](OC(=O)/C=C/c2ccc(O)c(O)c2)(C(=O)O)C[C@@H](O)[C@H]1O [1,5-Dicaffeoylquinic acid, 1,5-dicaffeoylquinic acid] | 2.4 | 7.6 | 2.2 | 7.2 | 2.4 | 2.8 | 5.3 | 2.4 | 
O=C(/C=C/c1ccc(O)c(O)c1)O[C@@H]1[C@H](O)C[C@@](O)(C(=O)O)C[C@H]1OC(=O)/C=C/c1ccc(O)c(O)c1 [3,4-Dicaffeoylquinic acid, 3,4-dicaffeoylquinic acid] | 3.5 | 25.8 | 4.2 | 18.7 | 4.9 | 7.3 | 14.9 | 5.1 | RQ value DSC1 (DSC1; 0.0006% alone, Example 5): 6.2; RQ value DSG1 (DSG1; 0.0006% alone, Example 5): 2.1; RQ value CLDN1 (CLDN1; 0.0006% alone, Example 5): 4.2
O=C(/C=C/c1ccc(O)c(O)c1)O[C@@H]1CC(O)(C(=O)O)C[C@@H](OC(=O)/C=C/c2ccc(O)c(O)c2)C1O (stereo partly shown) [3,5-Dicaffeoylquinic acid, 3,5-dicaffeoylquinic acid] | 3.4 | 20.5 | 3.5 | 16.5 | 6.1 | 6.2 | 12.2 | 4.7 | RQ value CRYAB (CRYAB; 0.0002% alone, Example 6): 2.7; RQ value DSG1 (DSG1; 0.0002% alone, Example 6): 2.4
O=C(/C=C/c1ccc(O)c(O)c1)O[C@@H]1C[C@](O)(C(=O)O)C[C@@H](O)[C@H]1O [3-caffeoyl-quinic acid, 3-Caffeoylquinic acid] |  |  |  |  |  |  |  |  | RQ value DEFB1 (DEFB1; 0.0007%, Example 2): 1.1; RQ value DSC1 (DSC1; 0.0007%, Example 2): 1.0; RQ value OCLN (OCLN; 0.0007%, Example 2): 1.0; RQ value CRYAB (CRYAB; 0.0007%, Example 2): 0.9; RQ value HSPB2 (HSPB2; 0.0007%, Example 2): 0.8; RQ value HSPB8 (HSPB8; 0.0007%, Example 2): 0.8; RQ value DSG1 (DSG1; 0.0007%, Example 2): 0.7; RQ value CLDN1 (CLDN1; 0.0007%, Example 2): 0.8
